Results published in article PMC3336786 (The FASEB Journal, 2012).
Positions count from the first letter of the chain named. Several values for one entry are separate records, joined by “and”; a condition that tells them apart may be missing. Equal values may be shown once. Read-outs that look alike come from different tables or passages of the source.

Assays:
[1] = target: α1β2γ2 GABAA receptors (Homo sapiens, UniProt P14867+P18507+P47870); assay: Two-electrode voltage clamp of α1β2γ2 GABAA receptors in Xenopus oocytes; assay type: cell-based
[2] = target: α1V2'Aβ2γ2 (Homo sapiens, UniProt P14867+P18507+P47870, V284A); assay type: cell-based
[3] = target: T1, human α1β2 GABAA receptors (Homo sapiens, UniProt P14867+P47870); assay: Two-electrode voltage clamp of α1β2 GABAA receptors in Xenopus oocytes; assay type: cell-based; details: for IC50: IC50, inhibition of GABA EC50 response
T1 sequence (P14867 28-456): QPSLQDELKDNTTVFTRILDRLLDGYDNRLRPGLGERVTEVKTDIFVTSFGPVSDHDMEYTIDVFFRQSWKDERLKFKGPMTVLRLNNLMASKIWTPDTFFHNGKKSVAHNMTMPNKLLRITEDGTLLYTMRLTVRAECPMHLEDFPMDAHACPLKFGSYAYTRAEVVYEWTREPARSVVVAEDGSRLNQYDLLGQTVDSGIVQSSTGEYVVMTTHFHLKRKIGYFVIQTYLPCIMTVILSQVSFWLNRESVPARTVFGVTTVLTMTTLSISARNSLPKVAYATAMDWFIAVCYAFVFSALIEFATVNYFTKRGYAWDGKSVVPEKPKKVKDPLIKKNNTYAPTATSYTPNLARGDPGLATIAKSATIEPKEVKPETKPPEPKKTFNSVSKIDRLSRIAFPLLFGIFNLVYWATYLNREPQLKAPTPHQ
T1 sequence (P47870 26-512): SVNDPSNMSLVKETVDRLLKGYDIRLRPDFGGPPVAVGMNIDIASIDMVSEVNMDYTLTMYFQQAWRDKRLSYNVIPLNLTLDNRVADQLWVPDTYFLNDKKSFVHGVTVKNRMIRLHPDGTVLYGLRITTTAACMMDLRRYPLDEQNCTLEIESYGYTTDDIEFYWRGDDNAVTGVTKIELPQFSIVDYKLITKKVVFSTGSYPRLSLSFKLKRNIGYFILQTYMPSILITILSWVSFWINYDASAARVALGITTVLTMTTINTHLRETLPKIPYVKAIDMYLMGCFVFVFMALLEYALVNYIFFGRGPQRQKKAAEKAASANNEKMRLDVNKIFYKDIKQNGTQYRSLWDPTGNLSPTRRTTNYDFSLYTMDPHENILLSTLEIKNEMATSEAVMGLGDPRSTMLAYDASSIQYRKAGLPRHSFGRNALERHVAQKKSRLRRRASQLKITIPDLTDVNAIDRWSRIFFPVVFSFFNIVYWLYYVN

[4] = target: T2, α1V2'Aβ2 (Homo sapiens, UniProt P14867+P47870, V284A); assay type: cell-based
T2 sequence (P14867 28-456 V284A): T1 sequence (P14867 28-456) with V257A
T2 sequence (P47870 26-512): T1 sequence (P47870 26-512)

[5] = target: T3, RDL (Drosophila melanogaster, UniProt P25123); assay type: cell-based
T3 sequence (P25123 45-606): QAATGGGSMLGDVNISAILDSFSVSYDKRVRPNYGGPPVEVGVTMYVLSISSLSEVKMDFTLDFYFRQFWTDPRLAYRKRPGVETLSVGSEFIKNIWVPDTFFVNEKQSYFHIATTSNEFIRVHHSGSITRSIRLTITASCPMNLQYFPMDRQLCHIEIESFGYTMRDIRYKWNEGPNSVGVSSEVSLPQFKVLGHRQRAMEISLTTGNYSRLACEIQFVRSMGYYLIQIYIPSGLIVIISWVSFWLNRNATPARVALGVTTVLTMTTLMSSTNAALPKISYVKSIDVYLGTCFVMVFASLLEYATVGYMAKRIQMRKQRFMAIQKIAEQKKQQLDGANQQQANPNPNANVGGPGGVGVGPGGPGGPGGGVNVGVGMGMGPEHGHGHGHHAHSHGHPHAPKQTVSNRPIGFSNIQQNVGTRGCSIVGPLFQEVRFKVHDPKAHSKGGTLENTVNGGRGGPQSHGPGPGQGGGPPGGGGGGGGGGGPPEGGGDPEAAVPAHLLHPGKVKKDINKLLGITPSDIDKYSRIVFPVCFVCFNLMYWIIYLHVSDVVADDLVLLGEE

[6] = target: T4, RDLA2'V (Drosophila melanogaster, UniProt P25123, A301V); assay: cell-based; assay type: cell-based
T4 sequence (P25123 45-606 A301V): T3 sequence (P25123 45-606) with A257V

[7] = tested on: Canton-S adult D. melanogaster; assay: Coated vial bioassay, wild-type; assay type: in vivo; details: for LD50: coated vial
[8] = target: T5, RDLT6'V (Drosophila melanogaster, UniProt P25123, T305V); assay: Two-electrode voltage clamp of RDLT6'V mutant receptors in Xenopus oocytes; assay type: cell-based
T5 sequence (P25123 45-606 T305V): T3 sequence (P25123 45-606) with T261V

[9] = tested on: dieldrin-resistant (Rdl) adult D. melanogaster; assay: Coated vial bioassay, dieldrin-resistant; assay type: in vivo; details: flies with A2'S mutation; ginkgolides up to 5000 ppm (limited by solubility)
[10] = tested on: humans; details: cited from earlier work
[11] = concentration-inhibition curve at GABA EC50

Chain of α1β2γ2 GABAA receptors (P18507 40-475, one chain of several): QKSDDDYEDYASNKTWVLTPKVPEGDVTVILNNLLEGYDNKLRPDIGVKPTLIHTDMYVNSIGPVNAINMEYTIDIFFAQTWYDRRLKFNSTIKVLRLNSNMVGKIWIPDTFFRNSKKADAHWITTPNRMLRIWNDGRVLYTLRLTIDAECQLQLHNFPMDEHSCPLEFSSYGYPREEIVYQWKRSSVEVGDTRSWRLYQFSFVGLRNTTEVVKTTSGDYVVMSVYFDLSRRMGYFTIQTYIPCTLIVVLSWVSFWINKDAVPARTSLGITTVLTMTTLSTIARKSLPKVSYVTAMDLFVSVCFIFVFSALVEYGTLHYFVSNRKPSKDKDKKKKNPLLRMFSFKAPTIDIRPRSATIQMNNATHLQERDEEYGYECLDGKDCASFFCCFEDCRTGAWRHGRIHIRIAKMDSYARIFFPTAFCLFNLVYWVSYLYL
Chain of α1V2'Aβ2γ2 (P14867 28-456 V284A, one chain of several): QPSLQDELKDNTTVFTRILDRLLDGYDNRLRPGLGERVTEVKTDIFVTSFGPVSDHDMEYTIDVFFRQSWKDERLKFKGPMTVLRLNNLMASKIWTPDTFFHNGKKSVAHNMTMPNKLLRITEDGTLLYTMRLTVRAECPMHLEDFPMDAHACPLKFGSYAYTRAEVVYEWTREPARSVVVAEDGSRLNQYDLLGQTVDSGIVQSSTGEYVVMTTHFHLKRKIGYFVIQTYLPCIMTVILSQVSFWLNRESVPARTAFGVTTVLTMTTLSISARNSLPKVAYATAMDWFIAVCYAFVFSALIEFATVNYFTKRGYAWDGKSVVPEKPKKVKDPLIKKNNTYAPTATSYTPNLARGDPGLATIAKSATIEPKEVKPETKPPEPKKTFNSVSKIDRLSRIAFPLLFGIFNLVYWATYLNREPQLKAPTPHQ
Chain of α1V2'Aβ2γ2 (P18507 40-475, one chain of several): as the sequence (P18507 40-475, one chain of several) above

CC(C)(C)[C@]1(O)CC2OC(=O)CC23C(=O)OC2OC(=O)[C@H](O)C231 (stereo partly shown) [BB, bilobalide]
IC50 [1]: 22.9 µM
nH (Hill coefficient) [1, 11]: 0.68 ± 0.10
IC50 [2]: 3.55 µM
nH (Hill coefficient) [2, 11]: 1.16 ± 0.20
IC50 [3]: 9.33 µM
nH (Hill coefficient) [3, 11]: 0.85 ± 0.10
IC50 ([4]; IC50, inhibition of GABA EC50 response): 2040 nM
nH (Hill coefficient) [4, 11]: 1.06 ± 0.10
IC50 [5]: 316 nM
nH (Hill coefficient) [5, 11]: 0.89 ± 0.09
nH (Hill coefficient) [6, 11]: 1.85 ± 0.21
LD50 ([7]; 24 h): 0.331 mg/mL
LD50 ([7]; 48 h): 0.009 mg/mL
LD50 ([7]; 72 h): 0.006 mg/mL

C[C@@H]1C(=O)O[C@H]2C[C@@]34[C@H]5C[C@@H](C(C)(C)C)[C@]36[C@@H](OC(=O)[C@@H]6O)O[C@@]4(C(=O)O5)[C@]21O [GA, ginkgolide A]
IC50 [1]: 38.9 µM
nH (Hill coefficient) [1, 11]: 0.49 ± 0.07
nH (Hill coefficient) [2, 11]: 0.86 ± 0.10
IC50 [3]: 15.8 µM
nH (Hill coefficient) [3, 11]: 0.65 ± 0.08
nH (Hill coefficient) [4, 11]: 0.87 ± 0.14
IC50 ([5]; IC50, inhibition of GABA EC50 response, second stable level of inhibition): 3 nM
IC50 ([5]; IC50, inhibition of GABA-evoked RDL currents, as printed in text and Fig. 6): 3.1 nM
nH (Hill coefficient) [5, 11]: 1.13 ± 0.18
IC50 ([5]; pIC50, inhibition of GABA EC50 response, second stable level of inhibition): 3.24 nM
nH (Hill coefficient) [6, 11]: 1.48 ± 0.19
LD50 ([7]; 24 h): 0.345 mg/mL
LD50 ([7]; 48 h): 0.063 mg/mL
LD50 ([7]; 72 h): 0.019 mg/mL

NCCCC(=O)O [GABA, γ-aminobutyric acid, reference compound]
nH (Hill coefficient) ([1]; GABA concentration-response): 1.64 ± 0.16
nH (Hill coefficient) ([2]; GABA concentration-response): 1.10 ± 0.11
nH (Hill coefficient) ([3]; GABA concentration-response): 1.43 ± 0.18
nH (Hill coefficient) ([4]; GABA concentration-response): 1.14 ± 0.12
increase in GABA sensitivity, α1 2' mutation vs wild type ([4]; α1V2'A-containing α1β2 and α1β2γ2 receptors): 20–50 fold
nH (Hill coefficient) ([5]; GABA concentration-response): 1.8 and 1.80 ± 0.20
nH (Hill coefficient) ([6]; GABA concentration-response): 2.20 ± 0.02
nH (Hill coefficient) ([8]; GABA concentration-response): 1.44 ± 0.29

ClC1=C(Cl)[C@]2(Cl)[C@@H]3[C@@H]4C[C@@H]([C@H]5O[C@@H]45)[C@@H]3[C@@]1(Cl)C2(Cl)Cl [dieldrin, reference compound]
mortality / toxicity (in words) [9]: no significant mortality up to 72 h
LD50 ([7]; 24 h, wild-type flies): 0.002 mg/mL
LD50 ([7]; 48 h, wild-type flies): 0.002 mg/mL
LD50 ([7]; 72 h, wild-type flies): 0.0017 mg/mL
mortality / toxicity (in words) ([7]; wild-type (susceptible) flies): highly effective in killing

N#Cc1nn(-c2c(Cl)cc(C(F)(F)F)cc2Cl)c(N)c1[S+]([O-])C(F)(F)F (stereo not shown) [fipronil]
U.S. Environmental Protection Agency ranking [10]: moderately toxic

ginkgolide B [GB]
nH (Hill coefficient) [1, 11]: 0.61 ± 0.06
nH (Hill coefficient) [2, 11]: 1.43 ± 0.29
nH (Hill coefficient) [3, 11]: 0.94 ± 0.06
nH (Hill coefficient) [4, 11]: 1.13 ± 0.09
nH (Hill coefficient) [5, 11]: 1.43 ± 0.14
nH (Hill coefficient) [6, 11]: 1.02 ± 0.20
nH (Hill coefficient) ([8]; concentration-inhibition curve): 1.00 ± 0.70
LD50 ([7]; 24 h): 0.171 mg/mL
LD50 ([7]; 48 h): 0.031 mg/mL
LD50 ([7]; 72 h): 0.010 mg/mL
